Measured values reported in US5374625A, “Adenine and guanine derivatives for the treatment of hepatitis virus infections” (priority 1990, dated 1994).
Converted amounts (≈) assume the structure as drawn.

What was measured:
[1] = system: Herpes simplex virus (HSV-1); experiment: Antiviral activity against Herpes simplex virus (HSV-1), CPE inhibition in Vero cells (Neutral Red); format: cell-based; settings: Human alphaherpesvirus 1, 50% inhibition of CPE, about 72 hours
Experimental: Antiviral activity against Herpes simplex virus (HSV-1) which is a DNA virus was tested by the following method.
Vero cells (originated from kidney cells of African Green Monkey) were cultured in MEM medium supplemented with 10% fetal bovine serum. One hundred μl of cell suspension (200,000 cells/ml) was plated into 96 wells plates (COSTAR) and cultured for 24 hours so that the culture became confluent. The medium was drawn, and cells were infected with HSV-1 virus for one hour. After drawing the virus fluid, cells were cultured for about 72 hours in a fresh medium containing test samples. The survived cells were stained with Neutral Red solution and absorbance at a wavelength of 546 nm (A546) was measured to evaluate the cytopathic effect (CPE).
CPE inhibition (%) was calculated as follows: [formula] Sample concentration required for 50% inhibition of the CPE was calculated as IC50 (μg/ml).

[2] = system: Human Immonodeficiency Virus (HIV); experiment: Antiviral activity against HIV (HTLV-IIIB strain) in MT-4 cells, HIV antigen-positive cells by indirect immunofluorescence; format: cell-based, HTLV-IIIB strain of HIV; settings: Human immunodeficiency virus 1, MT4, 96 h, 4 days
Experimental: Antiviral activity against Human Immonodeficiency Virus (HIV) belonging to RNA virus was examined by the following method: MT-4 cells […] in 0.5 ml of RPMI 1640 culture medium were seeded into 48-well plates, and 50 μl of test compounds were added to various concentrations. The cells were incubated at 37° C. for 2 hours in 5% (v/v) carbondioxide incubator. Then, 50 μl of the HTLV-IIIB strain of HIV (2.5×10^5 to 5×10^5 PFU/ml) was inoculated onto the cells. After 4 days, a part of the cells were applied onto a slide glass and immobilized with acetone. The percentages of HIV antigen-positive MT-4 cells were determined by indirect immunofluorescence assay. As the primary antibody, serum of AIDS patients was used. As the secondary antibody, FITC-labelled anti-human IgG was used.

[3] = system: hepatitis B virus (HBV); experiment: Antiviral activity against hepatitis B virus (HBV), viral DNA synthesis inhibition in HB611 cells; format: cell-based; settings: 360 h, drug concentration required for 50% inhibition of viral DNA synthesis, densitometry, read-out: Anti-HBV activity ID50
Experimental: Antiviral activity against hepatitis B virus (HBV) which is a DNA virus was tested by the following method.
The test was done by using a cell line, HB611, that was established by transfection and continuously produces HBV-like particles [Proc. Natl. Acad. Sci. USA, 84, 444-449, 1987]. HB611 cells were maintained in Dulbecco's modified Eagle medium (Gibco) supplemented with fetal bovine serum (Gibco), 100 μg/ml of streptomycin, […] of benzyl penicillin (Gibco) and 200 μg/ml of geneticin (Gibco) at 37° C. in 5% CO2 -95% air.
The cells were seeded in 24-well plate (Corning) at a density of 3×10^4 cells/well, using 1.0 ml of the medium. After 2 days of incubation, the medium was replaced with the same medium containing the test compound. The cells were incubated for a further 15 days, during which time the medium containing the drug was exchanged every three days. […]
The results which was autoradiographed were analyzed using a densitometric analyzer (Shimadzu, Chromatoscana S930).
To quantitatively evaluate the inhibitory activity of the compounds, there were measured the band areas S, D, D2 (S, D1 and D2 represent intracellular free HBV DNA derived from replicative intermediates) and I (represents chromosomally integrated HBV DNA) by densitometric analyzer, and calculated the inhibition percentage as follows: [formula] […]

Nc1nc2c(ncn2[C@H]2CC[C@H](CO)[C@@H](CO)C2)c(=O)[nH]1 [Example 21, 9-[(1S,3S,4S)-3,4-Bis(hydroxymethyl)-cyclohexyl]-guanine]
IC50 [1]: 2.77 µg/mL (≈ 9.44 µM)

Nc1ncnc2c1ncn2[C@H]1CC[C@H](CO)[C@@H](CO)C1 [Example 16, 9-[(1S,3S,4S)-3,4-Bis(hydroxymethyl)-cyclohexyl]-adenine]
IC50 [2]: 4.5 µg/mL (≈ 16.2 µM)

Nc1ncnc2c1ncn2[C@@H]1CC[C@H](CO)[C@H]1CO [Example 5, 9-[(1R,2R,3S)-2,3-Bis(hydroxymethyl)-1-cyclopentyl]-adenine]
IC50 [3]: 0.24 µg/mL (≈ 0.912 µM)

Nc1nc2c(ncn2[C@@H]2C[C@H](CO)[C@@H](CO)C[C@H]2O)c(=O)[nH]1 [Example 18, 9-[(1R,2R,4S,5S)-4,5-Bis(hydroxymethyl)-2-hydroxycyclohexyl]-guanine]
IC50 [1]: 45.9 µg/mL (≈ 148 µM)

Nc1ncnc2c1ncn2[C@@H]1C[C@H](CO)[C@@H](CO)C[C@H]1O [Example 13, 9-[(1R,2R,4S,5S)-4,5-Bis(hydroxymethyl)-2-hydroxycyclohexyl]-adenine]
IC50 [2]: 55 µg/mL (≈ 188 µM)
